The values that follow come from US5578634A, “1H-indole-3-acetic acid hydrazide sPLA2 inhibitors” (Eli Lilly and Company, priority 1995, dated 1996).

Usually IC50 stands for the concentration that inhibits the measured activity by half.

The target of one assay is T1, human secreted PLA2 (Homo sapiens, UniProt P14555).
T1 sequence (P14555 21-144): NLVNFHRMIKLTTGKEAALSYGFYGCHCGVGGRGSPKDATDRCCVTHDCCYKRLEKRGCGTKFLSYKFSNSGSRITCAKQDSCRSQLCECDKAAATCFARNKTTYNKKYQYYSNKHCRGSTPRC
Nature of the assay: chromogenic assay of recombinant human secreted phospholipase A2 inhibition (Assay Example 1). The class given is biochemical. The settings on record: mean of 3-5 tests; 40° C., 30 minutes, pH 7.5, 405 nanometers; read-out: Inhibition of human secreted PLA2 IC50 ± mean deviation (3-5 tests). The source says:
The assay described herein has been adapted for high volume screening using 96 well microtiter plates. A general description of this assay method is found in the article, "Analysis of Human Synovial Fluid Phospholipase A2 on Short Chain Phosphatidylcholine-Mixed Micelles: Development of a Spectrophotometric Assay Suitable for a Microtiterplate Reader", by Laure J. Reynolds, Lori L. […] Reagents, the disclosure of which is incorporated herein by reference. REACTION BUFFER CaCl2.2H20 (1.47 g/L) KCl (7.455 g/L) Bovine Serum Albumin (fatty acid free) (1 g/L) (Sigma A-7030, product of Sigma Chemical Co. St. Louis Mo., USA) TRIS HCl (3.94 g/L) pH 7.5 (adjust with NaOH) ENZYME BUFFER […] 0.2 NaCl Adjust pH to 4.5 with acetic acid DTNB […] RACEMIC DIHEPTANOYL THIO - PC […] TRITON X-100™ prepare at 6.249 mg/ml in reaction buffer to equal […]. REACTION MIXTURE A measured volume of racemic dipheptanoyl thio PC supplied in chloroform at a concentration of 100 mg/ml is taken to dryness and redissolved in 10 millimolar TRITON X-100™ nonionic detergent aqueous solution. Reaction Buffer is added to the solution, then DTNB to give the Reaction Mixture. The reaction mixture thus obtained contains 1 mM diheptanoly thio-PC substrate, 0.29 mM Triton X-100™ detergent, and 0.12 mM DTMB in a buffered aqueous solution at pH 7.5. Assay Procedure: 1. Add 0.2 ml reaction mixture to all wells; 2. Add 10 ul test compound (or solvent blank) to appropriate wells, mix 20 seconds; 3. Add 50 nanograms of sPLA2 (10 microliters) to appropriate wells; 4. Incubate plate at 40° C. for 30 minutes; […] Read absorbance of wells at 405 nanometers with an automatic plate reader. All compounds were tested in triplicate. Typically, compounds were tested at a final concentration of 5 ug/ml. […] Lack of color development at 405 nanometers evidenced inhibition. Compounds initially found to be active were reassayed to confirm their activity and, if sufficiently active, IC50 values were determined. […] In all cases, % inhibition measured at 405 nanometers generated by enzyme reactions containing inhibitors relative to the uninhibited control reactions was determined. Each sample was titrated in triplicate and result values were averaged for plotting and calculation of IC50 values. […] IC50 values were determined at least three times for each compound tested.

For a further assay, the target named is T2, sPLA2 contraction (Homo sapiens, UniProt P14555).
T2 sequence (P14555 21-144): T1 sequence (P14555 21-144)
Put plainly: sPLA2-induced contraction of guinea pig lung pleural strips, tissue test (Assay Example 2). Also noted: species or system Male Hartley strain guinea pigs; key to transient contraction of tissue during test: *: indicates transient contraction of tissue during test. To be noted: for transient contraction of tissue during test: footnote * of Table 2; for inhibition at 30 µM / inhibition at 10 µM: guinea pig, sPLA2 10 ug/ml; for inhibition at 30 µM: compound concentration 30 uM, read-out: % suppression of sPLA2 contraction at 30 uM; for inhibition at 10 µM: compound concentration 10 uM, read-out: % suppression of sPLA2 contraction at 10 uM. The source says: Male Hartley strain guinea pigs (500-700 g) were killed by cervical dislocation and their heart and lungs removed intact and placed in aerated (95% O2 :5% CO2) Krebs buffer. Dorsal pleural strips (4×1×25 mm) were dissected from intact parenchymal segments (8×4×25 mm) cut parallel to the outer edge of the lower lung lobes. Two adjacent pleural strips, obtained from a single lobe and representing a single tissue sample, were tied at either end and independently attached to a metal support rod. One rod was attached to a Grass force-displacement transducer (Model FTO3C, product of Grass Medical Instruments Co., Quincy, Mass., USA). […] All tissues were placed in 10 ml jacketed tissue baths maintained at 37° C. The tissue baths were continuously aerated and contained a modified Krebs solution of the following composition (millimolar) NaCl, 118.2; KCl, 4.6; CaCl2.2H2 O, 2.5; MgSO4.7H2 O, 1.2; NaHCO3, 24.8; KH2 PO4, 1.0; and dextrose, 10.0. Pleural strips from the opposite lobes of the lung were used for paired experiments. […] The tissues were allowed to equilibrate for 45 min. as the bath fluid was changed periodically. Cumulative concentration-response curves: Initially tissues were challenged 3 times with KCl (40 mM) to test tissue viability and to obtain a consistent response. After recording the maximal response to KCl the tissues were washed and allowed to return to baseline before the next challenge. Cumulative concentration-response curves were obtained from pleural strips by increasing the agonist concentration (sPLA2) in the tissue bath by half-log10 increments while the previous concentration remained in contact with the tissues (Ref.1, supra.) Agonist concentration was increased after reaching the plateau of the contraction elicited by the preceding concentration. One concentration-response curve was obtained from each tissue. To minimize variability between tissues obtained from different animals, contractile responses were expressed as a percentage of the maximal response obtained with the final KCl challenge. When studying the effects of various drugs on the contractile effects of sPLA2, the compounds and their respective vehicles were added to the tissues 30 min. prior to starting the sPLA2 concentration-response curves. statistical analysis: Data from different experiments were pooled and presented as a percentage of the maximal KCl responses (mean±S.E.). To estimate the drug induced rightward shifts in the concentration response curves, the curves were analyzed simultaneously using statistical nonlinear modeling methods similar to those described by Waud (1976), Equation 26, p. 163, (Ref.2). The model includes four parameters: the maximum tissue response which was assumed the same for each curve, the ED50 for the control curve, the steepness of the curves, and the PA2, the concentration of antagonist that requires a two-fold increase in agonist to achieve an equivalent response. The Schild slope was determined to be 1, using statistical nonlinear modeling methods similar to those described by Waud (1976), Equation 27, p. 164 (Ref. 2). […] To estimate the drug-induced suppression of the maximal responses, sPLA2 responses (10 ug/ml) were determined in the absence and presence of drug, and percent suppression was calculated for each pair of tissues. Ref. 1--van Rossum, J. M.: Cumulative dose-response curves. II. Technique for the making of dose-response curves in isolated organs and the evaluation of drug parameters. Arch. Int. Pharmacodyn. Ther. 143: 299-330, 1963. Ref. 2--Waud, D.: Analysis of dose-response relationships. in Advances in General and Cellular Pharmacology […]

As for `CCc1c(CC(=O)NN)c2cc(OC)ccc2n1Cc1ccccc1` [Example 3, 2-Ethyl-5-methoxy-1-(phenylmethyl)-1H-indole-3-acetic acid hydrazide], the IC50 on human secreted PLA2 amounted to 420 ± 190 nM. On sPLA2 contraction, the “transient contraction of tissue during test” value is on record as “*” and the inhibition at 30 µM was found to be 77.9 ± 4.2%.

On to `Cc1c(CC(=O)NN)c2ccc(-c3ccccc3)cc2n1Cc1ccccc1` [Example 57, 2-Methyl-6-phenyl-1-(phenylmethyl)-1H-indole-3-acetic acid hydrazide], for which the IC50 on human secreted PLA2 came out at 930 ± 550 nM. On sPLA2 contraction, the inhibition at 30 µM came out at 66.3 ± 5.9%.

On to `COc1ccc2c(c1)c(CC(=O)NN)c(C)n2Cc1cccc(O)c1` [Example 31, 1-[(3-Hydroxyphenyl)methyl]-5-methoxy-2-methyl-1H-indole-3-acetic acid hydrazide], for which the IC50 at human secreted PLA2 amounted to 3000 ± 1400 nM. Further, the inhibition at 30 µM at sPLA2 contraction amounted to 47.5 ± 13.4%.

For the compound `CCc1c(CC(=O)NN)c2cc(OC3CCCC3)ccc2n1Cc1ccccc1` [Example 2, 5-Cyclopentoxy-2-ethyl-1-(phenylmethyl)-1H-indole-3-acetic acid hydrazide], the IC50 on human secreted PLA2 is 470 ± 150 nM. Besides, the inhibition at 30 µM at sPLA2 contraction amounted to 60.5 ± 12.8%.

Turning to `Cc1c(CC(=O)NN)c2cc(O)ccc2n1Cc1ccccc1` [Example 61, 5-Hydroxy-2-methyl-1-(phenylmethyl)-1H-indole-3-acetic acid hydrazide], the IC50 on human secreted PLA2 amounted to 1390 ± 690 nM. At sPLA2 contraction, the inhibition at 30 µM worked out at 72.3 ± 4.5%.

Take `CCCc1c(CC(=O)NN)c2cc(OC)ccc2n1Cc1ccccc1` [Example 5, 5-Methoxy-1-(phenylmethyl)-2-propyl-1H-indole-3-acetic acid hydrazide]: the IC50 on human secreted PLA2 was found to be 70500 ± 2890 nM. The inhibition at 30 µM at sPLA2 contraction turned out to be 21.2 ± 12.5%.

Regarding `COc1ccc2c(c1)c(CC(=O)NN)c(C)n2Cc1ccccc1` [Example 16, 5-Methoxy-2-methyl-1-(phenylmethyl)-1H-indole-3-acetic acid hydrazide], the IC50 at human secreted PLA2 worked out at 860 ± 120 nM. At sPLA2 contraction, the inhibition at 10 µM was 55.2 ± 6.6% and the inhibition at 30 µM came to 83.9 ± 3.2%.

With `COc1ccc2c(c1)c(CC(=O)NN)c(C)n2Cc1cccc(-c2ccccc2)c1` [Example 25, 1-([1,1'-Biphenyl]-3-ylmethyl)-5-methoxy-2-methyl-1H-indole-3-acetic acid hydrazide], at human secreted PLA2, the IC50 was 940 ± 330 nM. Besides, the inhibition at 30 µM on sPLA2 contraction amounted to 7.3 ± 9.9%.

Consider `Cc1c(CC(=O)NN)c2cc(Br)ccc2n1Cc1cccc(OCc2ccccc2)c1` [Example 52, 1-[(3-Benzyloxyphenyl)methyl]-5-bromo-2-methyl-1H-indole-3-acetic acid hydrazide], for which, on human secreted PLA2, the IC50 came to 710 ± 340 nM. Moreover, at sPLA2 contraction, the inhibition at 10 µM came to 37.8 ± 15.5% and the inhibition at 30 µM turned out to be 29.1 ± 7%.

With `CCc1c(CC(=O)NN)c2cc(OC)ccc2n1Cc1ccccc1-c1ccccc1` [Example 4, 1-([1,1'-biphenyl]-2-ylmethyl)-2-ethyl-5-methoxy-1H-indole-3-acetic acid hydrazide], on human secreted PLA2, the IC50 came to 5170 ± 6710 nM. The inhibition at 30 µM on sPLA2 contraction stood at 11 ± 10.3%.

As to `COc1ccc2c(c1)c(CC(=O)NN)c(C)n2Cc1cccc(Cl)c1` [Example 18, 1-(3-Chlorophenylmethyl)-5-methoxy-2-methyl-1H-indole-3-acetic acid hydrazide], at human secreted PLA2, the IC50 worked out at 1020 ± 180 nM. At sPLA2 contraction, the “transient contraction of tissue during test” value is “*”, the inhibition at 10 µM is 70.7 ± 6.4% and the inhibition at 30 µM was 98 ± 1.5%.

`COc1ccc2c(c1)c(CC(=O)NN)c(C)n2Cc1ccccc1-c1ccccc1` [Example 24, 1-([1,1'-Biphenyl]-2-ylmethyl)-5-methoxy-2-methyl-1H-indole-3-acetic acid hydrazide]: the IC50 at human secreted PLA2 amounted to 260 ± 80 nM. Further, the inhibition at 30 µM at sPLA2 contraction is -4.2 ± 6.2%.
